“And” between values parts separate entries of the source, which are not always exact repeats. Equal entries are not always repeated. Structures can show the parent of a compound that is named as a salt.

In this test the target is 5-hydroxytryptamine receptor 4 (Cavia porcellus, UniProt O70528).
5-hydroxytryptamine receptor 4, sequence (O70528 whole entry): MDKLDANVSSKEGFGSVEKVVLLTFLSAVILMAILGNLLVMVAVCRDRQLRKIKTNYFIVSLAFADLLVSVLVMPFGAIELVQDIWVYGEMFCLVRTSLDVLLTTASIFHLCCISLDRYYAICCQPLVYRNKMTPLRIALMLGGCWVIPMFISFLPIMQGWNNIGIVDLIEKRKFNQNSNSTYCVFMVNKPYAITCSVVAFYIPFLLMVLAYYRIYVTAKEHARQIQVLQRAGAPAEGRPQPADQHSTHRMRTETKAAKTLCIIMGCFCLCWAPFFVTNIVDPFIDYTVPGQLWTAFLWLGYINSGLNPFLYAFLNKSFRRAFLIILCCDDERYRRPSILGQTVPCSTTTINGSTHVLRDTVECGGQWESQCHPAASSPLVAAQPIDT
On to `CN1C2CCC1CC(OC(=O)c1c[nH]c3ccccc13)C2` (configuration not stated), for which the Ki came out at 63.1 nM. With `Cn1cc(CCN)c2cc(O)ccc21` [5-HT,omega-N-Me], the affinity, expressed as Ki, was 1580 nM. For `COc1ccc2[nH]cc(CCN)c2c1` [tryptamine, 5-Methoxy] the value was 631 nM and 316 nM. For `COc1cc(N)c(Cl)cc1C(=O)N[C@@H]1CN2CCC1CC2` [ZACOPRIDE,R] the value was 1000 nM and 501 nM; for `CCn1c(=O)n(C(=O)NC2CC3CCC(C2)N3C)c2ccccc21` (configuration not stated) [BIMU 1], 15.8 nM; for `NCCc1c[nH]c2ccc(C(N)=O)cc12` [[3H]-5-carboxamidotryptamine], 6310 nM. `Cn1cc(C(=O)OCC2CCN(CCNS(C)(=O)=O)CC2)c2ccccc21` [GR 113808]: the Ki was 0.25 nM and 0.31 nM. For `CC(C)n1c(=O)n(C(=O)NC2C[C@H]3CC[C@@H](C2)N3C)c2ccccc21` (some centres not stated) [BIMU 8] the value was 25.1 nM and 12.6 nM.

On to `CCN(CC)CCNC(=O)c1cc(Cl)c(N)cc1OC` [4-amino-5-chloro-N-[2-(diethylamino)ethyl]-2-methoxy-benzamide;hydrochloride], for which the Ki was 631 nM and 501 nM. For `COc1cc(N)c(Cl)cc1C(=O)NC1CCN2CCCC1C2` (configuration not stated) [NSC_3035240], the inhibition constant (Ki) is 126 nM and 100 nM. For `COc1cc(N)c(Cl)cc1C(=O)NC1CN2CCC1CC2` (configuration not stated) [ZACOPRIDE,R] the value was 200 nM and 158 nM and 251 nM. To `CCN(CC)CCOC(=O)c1cc(Cl)c(N)cc1OC` [SDZ-205557] belongs 7.94 nM and 6.3 nM.

By Ki is commonly meant the dissociation constant of the complex between target and ligand, obtained from inhibition or displacement. A high value points to a looser hold on the target.

Values taken from BindingDB's records for doi:10.1111/j.1476-5381.1993.tb13617.x (Glaxo Group Research, 1993).
